According to paper PMC13192270, “RhlR quorum-sensing receptor ligand sensitivity regulates the differential expression of phenazine genes in Pseudomonas aeruginosa” (Journal of Bacteriology, 2026):

Tested on: ΔrhlI strain expressing RhlR A44M
Experiment: RNA-seq gene expression
Type: cell-based, Pseudomonas aeruginosa
Set-up: opmD Expression value / mexI Expression value / mexH Expression value / mexG Expression value / lasB Expression value / rhlA Expression value / rhlB Expression value / rhlR Expression value / lecB Expression value / fhp Expression value / chiC Expression value / hcnA Expression value / mvfR Expression value / katB Expression value / norC Expression value / norB Expression value / katA Expression value: unit not given here
Details: 2 µM C4HSL
Procedure: To determine the effects of hypo- and hypersensitivity to C4HSL on RhlR-dependent transcription activation in P. aeruginosa, we performed RNA-seq on ΔrhlI strains expressing WT RhlR, RhlR T58L, and RhlR A44M in the presence of 2 µM C4HSL. We chose this approach to better control the levels of C4HSL across samples. All gene expression analyses were done relative to a ΔrhlI strain without exogenous supplementation of AHL. Thus, we examined the total increase in C4HSL-dependent gene regulation. We observed increased rhlA RNA levels in strains expressing WT RhlR and the RhlR T58L variant compared to ΔrhlI without C4HSL or a strain expressing the RhlR A44M variant (Table 2; Table S1). […] To corroborate our RNA-seq data, we built an rhlA promoter fusion to mScarlet and assayed reporter levels in the same genetic backgrounds as our transcriptomic experiment (Fig. S7D). Strains expressing hypersensitive RhlR variants produced similar levels of fluorescent signal relative to the WT strain, while a strain expressing a hyposensitive RhlR variant had diminished levels of fluorescent reporter (Fig. S7D).
A total of […] of overnight cultures was back diluted 1:100 in 20 mL of fresh LB media and incubated for 5 h at 37°C with shaking. Cells were harvested by centrifugation, and pellets were frozen until RNA extraction. RNA was extracted using the Invitrogen PureLink RNA Mini Kit. Pellets were resuspended in 100 µL lysozyme solution containing 10 mM Tris-HCl pH 8.0, 0.1 mM EDTA, and 1 mg/mL lysozyme. Five microliters of 1% SDS was added, and the solution was mixed with a vortex and incubated at room temperature for 5 min. A total of 350 µL lysis buffer (Invitrogen) was added with 10 µL 2-mercaptoethanol for each 1 mL of lysis buffer and vortexed. Cells were lysed by bead beating (BioSpec 0.1 MM Zirconia/Silica Beads) for two rounds of 50 s. Lysed cells were transferred to fresh microcentrifuge tubes with 250 µL of 100% ethanol and mixed with a vortex. Samples were spun in spin cartridges (Invitrogen) at 12,000 × g for 15 s at room temperature, and the flow-through was discarded. A total of 700 µL Wash Buffer I (Invitrogen) was added and spun at 12,000 × g for 15 s at room temperature, and the flow-through was discarded. A total of 500 µL Wash Buffer II (Invitrogen) with ethanol was added and centrifuged for 12,000 × g for 15 s at room temperature; the flow-through was discarded, and RNA samples were washed again. Cells were spun at 12,000 × g for 1 min at room temperature to dry the membrane with the bound RNA. A total of 50 µL RNAse-free water was added to the center of the spin cartridge, incubated at room temperature for 1 min, and centrifuged for 2 min at ≥12,000 × g at room temperature. Extracted RNA was then frozen at −80°C until further use.
Bulk RNA was sent to SeqCenter (Pittsburgh, PA) where it was processed for paired-end Illumina sequencing via rRNA depletion using Ribo-Zero Plus (Illumina). Fastq files generated by SeqCenter were processed using Rockhopper with default settings ([61][–][63]). Briefly, fastq files were aligned to the genome of Pseudomonas aeruginosa UCBPP-PA14. The reads were subsequently normalized using upper-quartile normalization, and transcript abundance was determined by reads per kilobase per million mapped reads. Differential gene expression analysis was conducted using a negative binomial distribution model, outputting a P-value for each transcript. The P-values were then corrected for false discovery using the Benjamini-Hochberg procedure, resulting in the q-values reported here (Table S2). SignalMap v2.0 (NimbleGen Systems) was used to visualize read counts for phzABCDEFG1/2, phzH, phzM, and phzS (Fig. 5). Aligned sequences generated in Rockhopper were converted to GFF files, and genes of interest were isolated into unique GFF files ([37]).

CCCC(=O)N[C@H]1CCOC1=O [C4HSL, N-butyryl-L-homoserine lactone]
chiC Expression value: 132,918.5
fhp Expression value: 8,878
hcnA Expression value: 38,430
katA Expression value: 3,887,333
katB Expression value: 13,211.5
lasB Expression value: 6,614,384
lecB Expression value: 208,420
mexG Expression value: 4,729.5
mexH Expression value: 11,247.5
mexI Expression value: 15,683.5
mvfR Expression value: 214,018
norB Expression value: 28,591
norC Expression value: 12,922.5
opmD Expression value: 6,012
phnA Expression value: 2,884,404
phnB Expression value: 694,083
phzA1 Expression value: 8,661
phzA2 Expression value: 11,533
phzB1 Expression value: 163,479
phzB2 Expression value: 178,704.5
phzC1 Expression value: 135,611.5
phzC2 Expression value: 156,044
phzD1 Expression value: 153,729
phzD2 Expression value: 137,242.5
phzE1 Expression value: 282,659.5
phzE2 Expression value: 202,642.5
phzF1 Expression value: 137,969
phzF2 Expression value: 139,410.5
phzG1 Expression value: 118,586
phzG2 Expression value: 88,845
phzM Expression value: 93,038
phzS Expression value: 303,377
pqsA Expression value: 3,743,059.5
pqsB Expression value: 5,794,985
pqsC Expression value: 5,614,134
pqsD Expression value: 6,055,112.5
pqsE Expression value: 3,188,208
rhlA Expression value: 200,100.5
rhlB Expression value: 165,369.5
rhlR Expression value: 581,659
chiC Log2fold change (vs ΔrhlI without AHL): −0.05904
fhp Log2fold change (vs ΔrhlI without AHL): 0.2001
hcnA Log2fold change (vs ΔrhlI without AHL): 0.2595
katA Log2fold change (vs ΔrhlI without AHL): 0.3253
katB Log2fold change (vs ΔrhlI without AHL): 0.1017
lasB Log2fold change (vs ΔrhlI without AHL): 1.048
lecB Log2fold change (vs ΔrhlI without AHL): −0.7762
mexG Log2fold change (vs ΔrhlI without AHL): 0.2215
mexH Log2fold change (vs ΔrhlI without AHL): 0.2256
mexI Log2fold change (vs ΔrhlI without AHL): −0.1584
mvfR Log2fold change (vs ΔrhlI without AHL): −0.1373
norB Log2fold change (vs ΔrhlI without AHL): −0.5108
norC Log2fold change (vs ΔrhlI without AHL): −0.6332
opmD Log2fold change (vs ΔrhlI without AHL): −0.2426
phnA Log2fold change (vs ΔrhlI without AHL): 0.3171
phnB Log2fold change (vs ΔrhlI without AHL): 0.2753
phzA1 Log2fold change (vs ΔrhlI without AHL): −1.792
phzA2 Log2fold change (vs ΔrhlI without AHL): 0.1326
phzB1 Log2fold change (vs ΔrhlI without AHL): −1.046
phzB2 Log2fold change (vs ΔrhlI without AHL): −0.2412
phzC1 Log2fold change (vs ΔrhlI without AHL): −0.6965
phzC2 Log2fold change (vs ΔrhlI without AHL): −0.2301
phzD1 Log2fold change (vs ΔrhlI without AHL): −0.5047
phzD2 Log2fold change (vs ΔrhlI without AHL): −0.458
phzE1 Log2fold change (vs ΔrhlI without AHL): −0.5209
phzE2 Log2fold change (vs ΔrhlI without AHL): −0.574
phzF1 Log2fold change (vs ΔrhlI without AHL): −0.731
phzF2 Log2fold change (vs ΔrhlI without AHL): −0.7224
phzG1 Log2fold change (vs ΔrhlI without AHL): −0.7812
phzG2 Log2fold change (vs ΔrhlI without AHL): −0.325
phzM Log2fold change (vs ΔrhlI without AHL): −1.898
phzS Log2fold change (vs ΔrhlI without AHL): −1.303
pqsA Log2fold change (vs ΔrhlI without AHL): 0.5012
pqsB Log2fold change (vs ΔrhlI without AHL): 0.621
pqsC Log2fold change (vs ΔrhlI without AHL): 0.5508
pqsD Log2fold change (vs ΔrhlI without AHL): 0.4552
pqsE Log2fold change (vs ΔrhlI without AHL): 0.3409
rhlA Log2fold change (vs ΔrhlI without AHL): −0.336
rhlB Log2fold change (vs ΔrhlI without AHL): 0.3232
rhlR Log2fold change (vs ΔrhlI without AHL): −0.1335
